# Data as given in US20240148821A1, “PHARMACEUTICAL USE OF CYCLIC PEPTIDE COMPOUND” (CHUGAI SEIYAKU KABUSHIKI KAISHA, priority 2021, published 2024).
# Bridge positions count the residues as written; N and C are the ends. Square brackets hold non-standard residues; d marks the D form. Peptide text beside a SMILES is read from it. * marks the point of attachment. hPhe(3-Cl-4-CF3) = N[C@@H](CCc1ccc(C(F)(F)F)c(Cl)c1)C(=O)O; NMePhe(4-Me) = CN[C@@H](Cc1ccc(C)cc1)C(=O)O; NMePhe(4-F) = CN[C@@H](Cc1ccc(F)cc1)C(=O)O; NMeGly(cPent) = CN[C@H](C(=O)O)C1CCCC1; NMe3Pal = CN[C@@H](Cc1cccnc1)C(=O)O; NMeCha = CN[C@@H](CC1CCCCC1)C(=O)O; NMeAhp(2) = CCCCC[C@H](NC)C(=O)O; NMeChg = CN[C@H](C(=O)O)C1CCCCC1; NMeF = CN[C@@H](Cc1ccccc1)C(=O)O; NMeD = CN[C@@H](CC(=O)O)C(=O)O; NMeL = CN[C@@H](CC(C)C)C(=O)O; Ahp(2) = CCCCC[C@H](N)C(=O)O; Cba = N[C@@H](CC1CCC1)C(=O)O; NMeV = CN[C@H](C(=O)O)C(C)C; d(β3hA) = C[C@@H](N)CC(=O)O; NMeAbu = CC[C@H](NC)C(=O)O; NMeS = CN[C@@H](CO)C(=O)O; Morpholide = C1CN(*)CCO1; NMeA = CN[C@@H](C)C(=O)O; Nle = CCCC[C@H](N)C(=O)O; Piperidide = C1CCN(*)CC1; Pyrrolidide = C1CCN(*)C1; dNMeA = CN[C@H](C)C(=O)O; Ac5c = NC1(C(=O)O)CCCC1; Aze = O=C(O)[C@@H]1CCN1; Sar = CNCC(=O)O; Propyl = CCC*
# Test system: Human pancreatic cancer cell line AsPC-1 (G12D mutation Kras)
# Test: AsPC-1 cell growth inhibition (AsPC-1 CGI)
# Format: cell-based
# Settings: read-out: AsPC-1 cell growth inhibition, 50% growth inhibitory concentration (IC50 value); 96 hours, CellTiter-Glo, values classified in ranges
# Description: Test compounds were serially dilated with dimethyl sulfoxide, and 200 nL was then dispensed to a U-bottom 96-well plate using Labcyte Echo. […] The cell suspension was dispensed to a. plate containing a test compound at 100 μL per well and incubated at 37° C. in a 5% carbon dioxide gas incubator. 96 hours later, 80 μL of CellTiter-Glo (Promega) was added to each well and fluorescence was measured.
row,Structure (SMILES),IC50
1,CCCCC[C@@H]1NC(=O)[C@H](CC(C)C)N(C)C(=O)C[C@@H](C(=O)N2CCCCC2)N(C)C(=O)[C@H](C2CCCCC2)N(C)C(=O)C2(CCCC2)NC(=O)[C@@H]2CCCN2C(=O)[C@H](CCc2ccc(C(F)(F)F)c(Cl)c2)NC(=O)CN(C)C(=O)[C@H](CC2CCCCC2)N(C)C(=O)CN(C)C(=O)CN(C)C1=O [Compound 1692] ([NMeL][Ahp(2)][Sar][Sar][NMeCha][Sar][hPhe(3-Cl-4-CF3)]P[Ac5c][NMeChg][NMeD]-Piperidide; lactam N-11),> 500 nM
2,CC[C@H](C)[C@@H]1NC(=O)[C@H](C)N(C)C(=O)C[C@@H](C(=O)N2CCCCC2)N(C)C(=O)[C@H](C(C)C)N(C)C(=O)C2(CCCC2)NC(=O)[C@@H]2CCCN2C(=O)[C@H](CCc2ccc(C(F)(F)F)c(Cl)c2)NC(=O)CN(C)C(=O)[C@H](Cc2ccc(F)cc2)N(C)C(=O)[C@@H]2CCCN2C(=O)CN(C)C1=O [Compound 1698] ([NMeA]I[Sar]P[NMePhe(4-F)][Sar][hPhe(3-Cl-4-CF3)]P[Ac5c][NMeV][NMeD]-Piperidide; lactam N-11),> 500 nM
3,CC[C@H](C)[C@@H]1NC(=O)[C@H](C)N(C)C(=O)C[C@@H](C(=O)N2CCOCC2)N(C)C(=O)[C@H](C2CCCCC2)N(C)C(=O)C2(CCCC2)NC(=O)[C@H](Cc2cccnc2)N(C)C(=O)[C@H](CCc2ccc(C(F)(F)F)c(Cl)c2)NC(=O)CN(C)C(=O)[C@H](CC2CCCCC2)N(C)C(=O)[C@@H]2CCN2C(=O)CN(C)C1=O [Compound 1703] ([NMeA]I[Sar][Aze][NMeCha][Sar][hPhe(3-Cl-4-CF3)][NMe3Pal][Ac5c][NMeChg][NMeD]-Morpholide; lactam N-11),> 500 nM
4,CC[C@H](C)[C@@H]1NC(=O)[C@H](C)N(C)C(=O)C[C@@H](C(=O)N2CCCC2)N(C)C(=O)[C@H](C(C)C)N(C)C(=O)C2(CCCC2)NC(=O)[C@@H]2CCCN2C(=O)[C@H](CCc2ccc(C(F)(F)F)c(Cl)c2)NC(=O)[C@@H](C)N(C)C(=O)[C@H](CC2CCCCC2)N(C)C(=O)[C@@H]2CCCN2C(=O)CN(C)C1=O [Compound 1715] ([NMeA]I[Sar]P[NMeCha][dNMeA][hPhe(3-Cl-4-CF3)]P[Ac5c][NMeV][NMeD]-Pyrrolidide; lactam N-11),> 500 nM
5,CCCCC[C@H]1C(=O)N(C)[C@H](C(=O)N2CCCCC2)CC(=O)N(C)[C@@H](CC(C)C)C(=O)N[C@@H]([C@@H](C)CC)C(=O)N(C)CC(=O)N(C)CC(=O)N(C)[C@@H](CC2CCCCC2)C(=O)N(C)CC(=O)N[C@@H](CCc2ccc(C(F)(F)F)c(Cl)c2)C(=O)N2CCC[C@H]2C(=O)NC2(CCCC2)C(=O)N1C [Compound 1719] ([NMeL]I[Sar][Sar][NMeCha][Sar][hPhe(3-Cl-4-CF3)]P[Ac5c][NMeAhp(2)][NMeD]-Piperidide; lactam N-11),> 500 nM
6,CCCC[C@@H]1NC(=O)[C@H](CC(C)C)N(C)C(=O)C[C@@H](C(=O)N2CCCCC2)N(C)C(=O)[C@H](C2CCCCC2)N(C)C(=O)C2(CCCC2)NC(=O)[C@@H]2CCCN2C(=O)[C@H](CCc2ccc(C(F)(F)F)c(Cl)c2)NC(=O)CN(C)C(=O)[C@H](CC2CCCCC2)N(C)C(=O)CN(C)C(=O)CN(C)C1=O [Compound 1723] ([NMeL][Nle][Sar][Sar][NMeCha][Sar][hPhe(3-Cl-4-CF3)]P[Ac5c][NMeChg][NMeD]-Piperidide; lactam N-11),> 500 nM
7,CC[C@H](C)[C@@H]1NC(=O)[C@H](C)N(C)C(=O)C[C@@H](C(=O)N2CCCCC2)N(C)C(=O)[C@H](C(C)C)N(C)C(=O)C2(CCCC2)NC(=O)[C@@H]2CCCN2C(=O)[C@H](CCc2ccc(C(F)(F)F)c(Cl)c2)NC(=O)[C@H]2CCCN2C(=O)[C@H](Cc2ccc(F)cc2)N(C)C(=O)[C@@H]2CCCN2C(=O)CN(C)C1=O [Compound 1725] ([NMeA]I[Sar]P[NMePhe(4-F)][dP][hPhe(3-Cl-4-CF3)]P[Ac5c][NMeV][NMeD]-Piperidide; lactam N-11),> 500 nM
8,CC[C@H](C)[C@@H]1NC(=O)[C@H](C)N(C)C(=O)C[C@@H](C)NC(=O)[C@H](C(C)C)N(C)C(=O)C2(CCCC2)NC(=O)[C@@H]2CCCN2C(=O)[C@H](CCc2ccc(C(F)(F)F)c(Cl)c2)NC(=O)[C@H]2CCCN2C(=O)[C@H](Cc2ccccc2)N(C)C(=O)[C@@H]2CCCN2C(=O)CN(C)C1=O [Compound 1730] (cyclo([Ac5c][NMeV][d(β3hA)][NMeA]I[Sar]P[NMeF][dP][hPhe(3-Cl-4-CF3)]P)),> 500 nM
9,CC[C@H](C)[C@@H]1NC(=O)[C@H](C)N(C)C(=O)C[C@@H](C)NC(=O)[C@H](C(C)C)N(C)C(=O)C2(CCCC2)NC(=O)[C@@H]2CCCN2C(=O)[C@H](CCc2ccc(C(F)(F)F)c(Cl)c2)NC(=O)CN(C)C(=O)[C@H](Cc2ccc(F)cc2)N(C)C(=O)[C@@H]2CCCN2C(=O)CN(C)C1=O [Compound 1732] (cyclo([Ac5c][NMeV][d(β3hA)][NMeA]I[Sar]P[NMePhe(4-F)][Sar][hPhe(3-Cl-4-CF3)]P)),> 500 nM
10,CCCOC[C@@H]1NC(=O)[C@H](CC(C)C)N(C)C(=O)C[C@@H](C(=O)N2CCCCC2)N(C)C(=O)[C@H](C2CCCCC2)N(C)C(=O)C2(CCCC2)NC(=O)[C@@H]2CCCN2C(=O)[C@H](CCc2ccc(C(F)(F)F)c(Cl)c2)NC(=O)CN(C)C(=O)[C@H](CC2CCCCC2)N(C)C(=O)CN(C)C(=O)CN(C)C1=O [Compound 1736] ([NMeL]S(Propyl)[Sar][Sar][NMeCha][Sar][hPhe(3-Cl-4-CF3)]P[Ac5c][NMeChg][NMeD]-Piperidide; lactam N-11),> 500 nM
11,CC[C@H](C)[C@@H]1NC(=O)[C@H](CC(C)C)N(C)C(=O)C[C@@H](C(=O)N2CCCCC2)N(C)C(=O)[C@H](CC)N(C)C(=O)C2(CCCC2)NC(=O)[C@@H]2CCCN2C(=O)[C@H](CCc2ccc(C(F)(F)F)c(Cl)c2)NC(=O)CN(C)C(=O)[C@H](CC2CCCCC2)N(C)C(=O)CN(C)C(=O)CN(C)C1=O [Compound 1741] ([NMeL]I[Sar][Sar][NMeCha][Sar][hPhe(3-Cl-4-CF3)]P[Ac5c][NMeAbu][NMeD]-Piperidide; lactam N-11),> 500 nM
12,CC[C@H](C)[C@@H]1NC(=O)[C@H](CC(C)C)N(C)C(=O)C[C@@H](C(=O)N2CCCCC2)N(C)C(=O)[C@H](C2CCCCC2)N(C)C(=O)C2(CCCC2)NC(=O)[C@@H]2CCCN2C(=O)[C@H](CCc2ccc(C(F)(F)F)c(Cl)c2)NC(=O)CN(C)C(=O)[C@H](CC)N(C)C(=O)CN(C)C(=O)CN(C)C1=O [Compound 1743] ([NMeL]I[Sar][Sar][NMeAbu][Sar][hPhe(3-Cl-4-CF3)]P[Ac5c][NMeChg][NMeD]-Piperidide; lactam N-11),> 500 nM
13,CC[C@H](C)[C@@H]1NC(=O)[C@H](C)N(C)C(=O)C[C@@H](C(=O)N2CCCCC2)N(C)C(=O)[C@H](C(C)C)N(C)C(=O)C2(CCCC2)NC(=O)[C@@H]2CCCN2C(=O)[C@H](CCc2ccc(C(F)(F)F)c(Cl)c2)NC(=O)CN(C)C(=O)[C@H](Cc2ccccc2)N(C)C(=O)[C@@H]2CCCN2C(=O)CN(C)C1=O [Compound 1753] ([NMeA]I[Sar]P[NMeF][Sar][hPhe(3-Cl-4-CF3)]P[Ac5c][NMeV][NMeD]-Piperidide; lactam N-11),> 500 nM
14,CC(C)C[C@@H]1NC(=O)[C@H](CC(C)C)N(C)C(=O)C[C@@H](C(=O)N2CCCCC2)N(C)C(=O)[C@H](C(C)C)N(C)C(=O)C2(CCCC2)NC(=O)[C@@H]2CCCN2C(=O)[C@H](CCc2ccc(C(F)(F)F)c(Cl)c2)NC(=O)CN(C)C(=O)[C@H](CC2CCCCC2)N(C)C(=O)[C@@H]2CCN2C(=O)[C@H](C)N(C)C1=O [Compound 1754] ([NMeL]L[NMeA][Aze][NMeCha][Sar][hPhe(3-Cl-4-CF3)]P[Ac5c][NMeV][NMeD]-Piperidide; lactam N-11),> 500 nM
15,CC[C@H](C)[C@@H]1NC(=O)[C@H](C)N(C)C(=O)C[C@@H](C(=O)N2CCCCC2)N(C)C(=O)[C@H](C(C)C)N(C)C(=O)C2(CCCC2)NC(=O)[C@@H]2CCCN2C(=O)[C@H](CCc2ccc(C(F)(F)F)c(Cl)c2)NC(=O)[C@@H](C)N(C)C(=O)[C@H](Cc2ccc(F)cc2)N(C)C(=O)CN(C)C(=O)CN(C)C1=O [Compound 1755] ([NMeA]I[Sar][Sar][NMePhe(4-F)][dNMeA][hPhe(3-Cl-4-CF3)]P[Ac5c][NMeV][NMeD]-Piperidide; lactam N-11),> 500 nM
16,CC[C@H](C)[C@@H]1NC(=O)[C@H](CC(C)C)N(C)C(=O)C[C@@H](C(=O)N(C)C)N(C)C(=O)[C@H](C2CCCC2)N(C)C(=O)C2(CCCC2)NC(=O)[C@@H]2CCCN2C(=O)[C@H](CCc2ccc(C(F)(F)F)c(Cl)c2)NC(=O)CN(C)C(=O)[C@H](Cc2ccc(C)cc2)N(C)C(=O)[C@@H]2CCN2C(=O)[C@H](C)N(C)C1=O [Compound 1756] ([NMeL]I[NMeA][Aze][NMePhe(4-Me)][Sar][hPhe(3-Cl-4-CF3)]P[Ac5c][NMeGly(cPent)][NMeD]-NMe2; lactam N-11),≤ 20 nM
17,CC(C)C[C@H]1C(=O)N[C@@H](CC2CCC2)C(=O)N(C)CC(=O)N(C)CC(=O)N(C)[C@@H](CC2CCCCC2)C(=O)N(C)CC(=O)N[C@@H](CCc2ccc(C(F)(F)F)c(Cl)c2)C(=O)N2CCC[C@H]2C(=O)NC2(CCCC2)C(=O)N(C)[C@@H](C2CCCCC2)C(=O)N(C)[C@H](C(=O)N2CCCCC2)CC(=O)N1C [Compound 1759] ([NMeL][Cba][Sar][Sar][NMeCha][Sar][hPhe(3-Cl-4-CF3)]P[Ac5c][NMeChg][NMeD]-Piperidide; lactam N-11),> 500 nM
18,CC(C)C[C@H]1C(=O)N[C@@H](CO)C(=O)N(C)[C@@H](C)C(=O)N2CC[C@H]2C(=O)N(C)[C@@H](CC2CCCCC2)C(=O)N(C)CC(=O)N[C@@H](CCc2ccc(C(F)(F)F)c(Cl)c2)C(=O)N2CCC[C@H]2C(=O)NC2(CCCC2)C(=O)N(C)[C@@H](C(C)C)C(=O)N(C)[C@H](C(=O)N2CCCCC2)CC(=O)N1C [Compound 1768] ([NMeL]S[NMeA][Aze][NMeCha][Sar][hPhe(3-Cl-4-CF3)]P[Ac5c][NMeV][NMeD]-Piperidide; lactam N-11),> 500 nM
19,CCCOC[C@H]1C(=O)N(C)[C@H](C(=O)N2CCCCC2)CC(=O)N(C)[C@@H](CC(C)C)C(=O)N[C@@H]([C@@H](C)CC)C(=O)N(C)CC(=O)N(C)CC(=O)N(C)[C@@H](CC2CCCCC2)C(=O)N(C)CC(=O)N[C@@H](CCc2ccc(C(F)(F)F)c(Cl)c2)C(=O)N2CCC[C@H]2C(=O)NC2(CCCC2)C(=O)N1C [Compound 1771] ([NMeL]I[Sar][Sar][NMeCha][Sar][hPhe(3-Cl-4-CF3)]P[Ac5c][NMeS](Propyl)[NMeD]-Piperidide; lactam N-11),> 500 nM
